Results taken from the Kinase Knowledgebase extract (Sharma et al. 2016).
In brackets after ≈: the same amount, converted by molar mass.

These compounds were tested against EGFR (UniProt P00533).
Chain of EGFR (P00533 whole entry, looked up): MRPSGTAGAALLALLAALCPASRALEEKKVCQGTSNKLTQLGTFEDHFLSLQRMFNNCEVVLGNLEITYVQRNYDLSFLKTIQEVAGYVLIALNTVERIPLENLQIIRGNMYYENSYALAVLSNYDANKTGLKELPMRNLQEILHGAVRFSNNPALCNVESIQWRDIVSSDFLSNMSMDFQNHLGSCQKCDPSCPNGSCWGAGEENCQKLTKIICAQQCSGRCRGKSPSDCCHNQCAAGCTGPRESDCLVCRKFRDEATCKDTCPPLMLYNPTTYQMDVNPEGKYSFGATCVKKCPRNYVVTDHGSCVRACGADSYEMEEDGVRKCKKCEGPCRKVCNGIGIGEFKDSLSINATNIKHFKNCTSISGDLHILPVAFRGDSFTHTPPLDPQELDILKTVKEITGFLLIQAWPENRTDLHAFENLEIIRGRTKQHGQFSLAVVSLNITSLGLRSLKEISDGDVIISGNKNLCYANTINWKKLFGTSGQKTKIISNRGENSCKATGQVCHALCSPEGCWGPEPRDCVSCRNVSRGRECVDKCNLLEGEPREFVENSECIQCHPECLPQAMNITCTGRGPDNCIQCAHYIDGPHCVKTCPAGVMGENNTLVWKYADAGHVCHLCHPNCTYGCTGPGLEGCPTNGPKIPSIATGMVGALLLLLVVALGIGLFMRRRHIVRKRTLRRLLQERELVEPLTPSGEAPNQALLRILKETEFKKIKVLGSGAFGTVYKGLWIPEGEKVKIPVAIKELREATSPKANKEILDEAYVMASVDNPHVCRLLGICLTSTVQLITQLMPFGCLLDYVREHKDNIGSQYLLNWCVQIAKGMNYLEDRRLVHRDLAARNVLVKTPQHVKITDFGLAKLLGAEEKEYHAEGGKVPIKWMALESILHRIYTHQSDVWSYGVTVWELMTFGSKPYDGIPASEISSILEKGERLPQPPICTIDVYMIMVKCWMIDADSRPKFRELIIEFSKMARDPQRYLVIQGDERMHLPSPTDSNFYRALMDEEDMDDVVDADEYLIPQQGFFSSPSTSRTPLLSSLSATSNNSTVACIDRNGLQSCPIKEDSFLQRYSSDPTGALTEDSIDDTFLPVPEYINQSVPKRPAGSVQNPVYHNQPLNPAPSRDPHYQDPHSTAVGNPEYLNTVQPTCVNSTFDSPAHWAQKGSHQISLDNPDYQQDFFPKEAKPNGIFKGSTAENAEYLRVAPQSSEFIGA

| IC50 | Compound |
| --- | --- |
| > 4.5 µg/mL | COc1cc(Nc2ncnc(N3CCc4ccccc43)n2)cc(OC)c1OC |
| > 4.5 µg/mL | COc1cc(Nc2ncnc(-n3c(NCc4cccc(C)c4)nc4ccccc43)n2)cc(OC)c1OC |
| 3.5 to 4.5 µg/mL (≈ 8.59 to 11 µM) | COc1cc(Nc2ncnc(N[C@H]3CCCc4ccccc43)n2)cc(OC)c1OC |
| > 4.5 µg/mL | COc1cc(Nc2ncnc(-n3ccc4cccnc43)n2)cc(OC)c1OC |
| < 0.4 µg/mL | COc1ccc(Nc2ncnc(Nc3ccccc3C)n2)cc1OC |
| > 4.5 µg/mL | COc1cc(Nc2ncnc(-n3ccc4ccc(F)cc43)n2)cc(OC)c1OC |
| > 4.5 µg/mL | COC(=O)c1sccc1Nc1ncnc(Nc2cc(OC)c(OC)c(OC)c2)n1 |
| 2.4 to 3.5 µg/mL (≈ 7.2 to 10.5 µM) | COc1ccc(Nc2ncnc(-n3c(N)nc4ccccc43)n2)cc1 |
| 2.4 to 3.5 µg/mL (≈ 6.87 to 10 µM) | COc1ccc(Nc2ncnc(-n3c(N)nc4ccccc43)n2)cc1O |
| > 4.5 µg/mL | COc1cc(Nc2ncnc(-n3c(N)nc4ccccc43)n2)cc(OCCN2CCOCC2)c1OC |
| > 4.5 µg/mL | COc1cc(Nc2ncnc(-c3cccnc3NC(C)c3ccccc3)n2)cc(OC)c1OC (stereo not drawn) |
| > 4.5 µg/mL | COc1cc(Nc2ncnc(Nc3nnc(-c4ccccc4)[nH]3)n2)cc(OC)c1OC |
| 2.4 to 3.5 µg/mL (≈ 4.86 to 7.09 µM) | COc1cc(Nc2ncnc(-n3c(=O)[nH]c4ccccc43)n2)cc(OC)c1OCCN1CCOCC1 |
| > 4.5 µg/mL | COc1cc(Nc2ncnc(-c3ccnc(Cl)c3)n2)cc(OC)c1OC |
| > 4.5 µg/mL | COc1cc(Nc2ncnc(-n3cccc3)n2)cc(OC)c1OC |
| < 0.4 µg/mL | COc1cc(Nc2ncnc(Nc3ccc4[nH]ccc4c3)n2)cc(OC)c1OC |
| > 4.5 µg/mL | COC(=O)c1cc(OC)c(OC)cc1Nc1ncnc(-n2c(N)nc3ccccc32)n1 |
| > 4.5 µg/mL | COc1cc(Nc2ncnc(-c3ccccc3)n2)cc(OC)c1OC |
| > 4.5 µg/mL | COC(=O)n1c(=O)n(-c2ncnc(Nc3cc(OC)c(OC)c(OC)c3)n2)c2ccccc21 |
| 2.4 to 3.5 µg/mL (≈ 5.1 to 7.44 µM) | COc1cc(Nc2ncnc(-c3cccnc3NC3CCc4ccccc43)n2)cc(OC)c1OC (stereo not drawn) |
| > 4.5 µg/mL | COc1cc(Nc2ncnc(-n3c(NC4c5ccccc5CC4O)nc4ccccc43)n2)cc(OC)c1OC (stereo not drawn) |
| < 0.4 µg/mL | COc1cc(Nc2ncnc(NC3CC3c3ccccc3)n2)cc(OC)c1OC (stereo not drawn) |
| < 0.4 µg/mL | COc1ccc(Nc2ncnc(Nc3cccc(Br)c3)n2)cc1OC |
| 0.4 to 2.4 µg/mL (≈ 1.07 to 6.45 µM) | Nc1nc2ccccc2n1-c1ncnc(Nc2ccc(Cl)c(Cl)c2)n1 |

Continued, compound first:

| Compound | IC50 |
| --- | --- |
| CN(c1cccc(Cl)c1)c1ncnc(Nc2cccc(CNC(=O)O[C@@H]3CCOC3)c2)n1 | < 0.4 µg/mL |
| Nc1ccc(Nc2ncnc(-c3ccccc3)n2)cc1 | > 4.5 µg/mL |
| COc1ccc(CNc2ncnc(Nc3cc(-c4ccco4)n[nH]3)n2)cc1 | > 4.5 µg/mL |
| Cc1ccc2c(c1)CCCN2c1ncnc(NCC2CCCO2)n1 (stereo not drawn) | > 4.5 µg/mL |
| COc1cccc(Nc2ncccc2-c2ncnc(Nc3cc(OC)c(OC)c(OC)c3)n2)c1 | 3.5 to 4.5 µg/mL (≈ 7.6 to 9.77 µM) |
| COc1cc(Nc2ncnc(Nc3cc(Cl)c(O)c(Cl)c3)n2)cc(OC)c1OC | < 0.4 µg/mL |
| c1ccc(CNc2ncccc2-c2ncnc(Nc3ccc(N4CCOCC4)cc3)n2)cc1 | > 4.5 µg/mL |
| COc1cc(Nc2ncnc(Nc3cc(C)[nH]n3)n2)cc(OC)c1OC | 3.5 to 4.5 µg/mL (≈ 9.79 to 12.6 µM) |
| N#Cc1cccc(Nc2ncnc(-n3c(=O)[nH]c4ccccc43)n2)c1 | > 4.5 µg/mL |
| COc1cc(Nc2ncnc(Nc3cc(C)c(O)cc3C)n2)cc(OC)c1OC | < 0.4 µg/mL |
| NC(=O)Cc1cccc(Nc2ncnc(Nc3cccc(Br)c3)n2)c1 | < 0.4 µg/mL |
| COc1cc(Nc2nc(F)nc(Nc3cccc(OC(F)(F)F)c3)n2)cc(OC)c1OC | < 0.4 µg/mL |
| COc1cc(Nc2ncnc(N(CC(=O)OC(C)(C)C)c3ccc(Cl)cc3)n2)cc(OC)c1OC | 0.4 to 2.4 µg/mL (≈ 0.797 to 4.78 µM) |
| COc1ccc(CCNc2ncnc(Nc3cc(-c4ccco4)[nH]n3)n2)cc1OC | > 4.5 µg/mL |
| Clc1ccc(-c2csc(Nc3ncnc(-n4cccc4)n3)n2)cc1 | > 4.5 µg/mL |
| COc1cc(Nc2ncnc(Nc3ccc(S(=O)(=O)NC(C)=O)cc3)n2)cc(OC)c1OC | > 4.5 µg/mL |
| FC(F)(F)c1cccc(Nc2ncnc(-n3cccc3)n2)c1 | > 4.5 µg/mL |
| COC(=O)c1ccc(-c2cc(Nc3ncnc(Nc4ccc(N5CCOCC5)cc4)n3)[nH]n2)cc1 | 3.5 to 4.5 µg/mL (≈ 7.41 to 9.52 µM) |
| Clc1ncnc(Nc2ccc(OCc3ccccc3)cc2)n1 | > 4.5 µg/mL |
